Data taken from patent US11820994B2, “Methods of inducing apomictic or sexual reproduction” (priority 2018, dated 2023).

Key:
[1] = system: B. stricta (Drummond's rockcress) ovules; test: Pistil culture factorial experiment with sucrose, glucose, epiBL, DTBA and 5-azaC; assay type: cell-based, Boechera stricta
Excerpt: (§1) To address redox instability, pistils were exposed to the antioxidant DTBA, an antioxidant that protects thiol groups in proteins from oxidization. To address bioenergetic stress, pistils were exposed to sugars. Glucose signaling is one of the most ancient and central signaling pathways in animals and plants and is involved in gene expression, primary and secondary metabolism, and regulation of growth and development (98). In Arabidopsis, rates of glycolysis and mitochondrial bioenergetics are sensed by TOR, which then control root meristem activation (18). If sufficient sugar is supplied, TOR should be activated. Active TOR protects BZR1 and other important BR-regulated enzymes from degradation, and this leads to plant growth (25). Factorial experiments were designed to test the effects of sucrose, glucose, epiBL, DTBA and 5-azaC on apomixis induction. These were designed for each of three sexual species, B. stricta, arabidopsis and cowpea. The experiments were performed and ratios of apomeiosis to meiosis were documented.
Both the carbohydrate variable and the other components variable were highly significant (P<0.001). Additionally, three ovules from the sucrose plus epiBL treatment (epiBL in the pretreatment and in the medium) had formed aposporous embryo sacs (AES). Also, two ovules, one from the sucrose-epiBL-epiBL treatment and one from the glucose-DTBA-DTBA treatment, had formed Antennaria-type diplosporous embryo sacs (FIGS. 48A-48H).
Cytological Analyses. Arabidopsis, Drummond's rockcress and cowpea floral buds were fixed in FAA (v/v: 3.7% formaldehyde, 5% acetic acid, 50% ethanol) for 48 h and cleared in 2:1 benzyl benzoate dibutyl phthalate (BBDP) (80): 1) 70% EtOH, 30 min; 95% EtOH, ≥4 h (2×); 95% EtOH:BBDP (2:1), 2 h; 95% EtOH:BBDP (1:2), 4 h; BBDP, 4 h; BBDP, overnight. Cleared pistils were mounted (up to 16 per slide) and measured from the pedicel base to the top of the stigma. […] DAPI fluorescence was detected with a Zeiss LSM 510 confocal microscope with excitation at 408 nm, dichroic reflector at HFT488 nm and detection at 450-650 nm. […]
Presence of the following ovule characteristics were recorded: MMCs, Antennaria type diplosporous 1-2 nucleate ES, sexual or Taraxacum type diplosporous dyads, sexual tetrads, sexual or Taraxacum type diplosporous 1-2 nucleate ES, AI and AES. Developmental stages for the majority of ovules per pistil were recorded, and pistil lengths for the following stages (125) were recorded: 1-II, ovule meristems protruding from placentae (precedes MMC formation); 2-IV, meiosis; 3-III, vacuole in immature ES beginning to appear; 4-VI, nuclear divisions in endosperm underway. […]

[2] = system: B. cf. gunnisoniana ovules; test: Pistil culture with BR biosynthesis inhibitor BRZ, H2O2, or both; assay type: cell-based; conditions: for shift from apomeiosis (dyad formation) to meiosis (tetrad formation) vs controls: BRZ alone (1.0 μmol), H2O2 alone (500 μmol), or combined
Protocol: Pistils were cultured at the 2-IV stage.
Pistils were cultured at the […].
By a mechanism not yet elucidated (25), TOR stimulates the production of brassinosteroids (BR), which are plant steroids that regulate growth, including many growth and development functions of ovules (25). By dephosphorylation, BR activates BRASSINAZOLE-RESISTANT 1 (BZR1), which is a major BR-regulated transcription factor that targets ca. 2000 genes. Thus, to determine if BR functions downstream of TOR in the apomeiosis meiosis switch, we treated sets of B. cf. gunnisoniana pistils with the BR biosynthesis inhibitor brassinozole (BRZ). Pistils were collected during the 2-III and 2-IV stages.
To determine if apomixis to sex switching by H2O2 involves pathways independent of BR, we compared three treatments to controls, BRZ alone (1.0 μmol), H2O2 alone (500 μmol), and BRZ and H2O2 combined (FIG. 37).

[3] = system: apomictic Boechera pistils; conditions: H2O2 applications shortly before apomeiosis; cited from earlier work
[4] = system: Arabidopsis ovules; test: Pistil culture experiments with 5-azaC, BR (epiBL), DTBA, H2O2 and sugars, meiosis to apomeiosis; assay type: cell-based, Arabidopsis thaliana
Excerpt: as §1
Two factorial experiments were conducted using immature arabidopsis pistils. In the first experiment, no 5-azaC, 5-azaC in the pretreatment only, or 5-azaC in both the pretreatment and the tissue culture medium were tested.
Cytological Analyses. Arabidopsis, Drummond's rockcress and cowpea floral buds were fixed in FAA (v/v: 3.7% formaldehyde, 5% acetic acid, 50% ethanol) for 48 h and cleared in 2:1 benzyl benzoate dibutyl phthalate (BBDP) (80): 1) 70% EtOH, 30 min; 95% EtOH, ≥4 h (2×); 95% EtOH:BBDP (2:1), 2 h; 95% EtOH:BBDP (1:2), 4 h; BBDP, 4 h; BBDP, overnight. Cleared pistils were mounted (up to 16 per slide) and measured from the pedicel base to the top of the stigma. Ovule development stages were studied using a BX53 microscope equipped with differential interference contrast optics and a MicroFire 599809 camera (Olympus, Center Valley, Pa., USA). For chromosome staining, pistils were soaked in 95% ethanol that contained 0.1 mg L^−1 4′,6-diamidino-2-phenylindole (DAPI). Callose was stained by soaking DAPI stained pistils in aqueous aniline blue (Millipore Sigma, Darmstadt, Germany) (124). DAPI fluorescence was detected with a Zeiss LSM 510 confocal microscope with excitation at 408 nm, dichroic reflector at HFT488 nm and detection at 450-650 nm. Callose was distinguished from DAPI by detection at 550-650 nm.
Presence of the following ovule characteristics were recorded: MMCs, Antennaria type diplosporous 1-2 nucleate ES, sexual or Taraxacum type diplosporous dyads, sexual tetrads, sexual or Taraxacum type diplosporous 1-2 nucleate ES, AI and AES. Developmental stages for the majority of ovules per pistil were recorded, and pistil lengths for the following stages (125) were recorded: 1-II, ovule meristems protruding from placentae (precedes MMC formation); 2-IV, meiosis; 3-III, vacuole in immature ES beginning to appear; 4-VI, nuclear divisions in endosperm underway. To determine average timing of meiosis onset, pistils primarily containing premeiotic (2-III) ovules were located under low light conditions 1 h before the lights came on in the morning. Corresponding sepals were marked with a small point permanent marker. Pistils were then randomly harvested for analysis when the lights came on and 3 h thereafter.
Pistils were aseptically excised, but not disinfested, at the early pre-MMC to MMC stages and incubated in vitro. The basal culture medium for arabidopsis and Drummond's rockcress was MS (126) (Caisson Laboratories, Inc., Smithfield, UT USA) with 20 g L^−1 sucrose or glucose and solidified with 1.45 g L^−1 Phytogel (MilliporeSigma).

[5] = system: B. lignifera ovules; conditions: 50 and/or 100 mmol L−1 H2O2, 5 min pretreatment of pistils
Excerpt: (§2) Ovules were scored based on germline development. The following conditions were quantified: i) pre-meiotic megaspore mother cell (MMC), ii) meiotic or diplosporous dyad, iii) sexual tetrad of megaspores, iv) enlarged functional megaspore (FM) with three degenerating megaspores (sexually derived), v) early-stage 1 or 2-nucleate embryo sac with three degenerating megaspore remnants visible, vi) enlarged functional megaspore (FM) with only one degenerating megaspore (derived by Taraxacum-type diplospory), vii) early-stage 1 or 2-nucleate embryo sac with only one degenerating megaspore remnant (derived by Taraxacum-type diplospory), viii) early-stage 1 or 2-nucleate embryo sac with no degenerating megaspores present (derived by Antennaria-type diplospory), ix) presence of one or more enlarged non-vacuolate nucellar cells (aposporous initial, AI) that equal or surpass the size of the meiocyte (meiotically active MMC, dyad or early-stage tetrad), x) enlarged nucellar cell with one or more distinct vacuoles and 1-2 nuclei (early-stage aposporous embryo sac, AES). Because of increased uncertainties, the origins of embryo sacs (sexual, diplosporous or aposporous) were not reported beyond the 2-nucleate stage. Pistil length and the developmental stage of the majority of scorable ovules in the pistil were recorded for each pistil.
(§3) To study the effects of short-term drought on converting apomictic development to sexual development, pistils of apomictic B. retrofracta×stricta, B. cf. gunnisoniana and B. lignifera were excised and cultured at pre-apomeiotic stages of ovule development.
(§4) TARGET OF RAPAMYCIN (TOR) is a major regulator of cell energetics that is highly-conserved among eukaryotes. This serine/threonine protein kinase activates or inactivates enzymes by its serine-threonine phosphorylation function(18). As a regulator of bioenergetics, TOR is inactivated by ROS, and its inactivation suppresses growth.

[6] = system: B. cf. gunnisoniana ovules
Excerpt: as §2, §3, §4

[7] = system: B. retrofracta×stricta ovules; conditions: 50 and/or 100 mmol L−1 H2O2, 5 min pretreatment of pistils
Excerpt: as §2, §3, §4

[8] = system: Arabidopsis embryo sacs; test: Induction of parthenogenesis and autonomous endosperm formation in pistils; assay type: cell-based; conditions: 0.1 μM DTBA on 2% glucose medium for 7 d
Protocol: Scale bars: 50 μm (FIG. 51A), 20 μm (FIGS. 51B-51E).
FIG. 52 Parthenogenesis in putatively diploid Arabidopsis embryo sacs induced by treatment of pistils in emasculated flowers with 2 μM BR or 50 mM glucose. To prevent fertilization, stigmas of pistils were clipped while anthers were immature. These pistils were also treated premeiotically with BR and glucose.
Functional apomixis requires not only apomeiosis but also parthenogenesis and, in plants, endosperm formation.

[9] = system: cowpea (Vigna unguiculata) ovules; test: Pistil culture with epiBL, DTBA, epiBL plus DTBA and 5-azaC; assay type: cell-based; conditions: compound in pretreatment and culture medium; 24 of 34 ovules in total
Excerpt: as §1, with “These were designed for each of three sexual species, B. stricta, arabidopsis and cowpea. The experiments were performed and ratios of apomeiosis to meiosis were documented.” left out
Cytological Analyses. […] Cleared pistils were mounted (up to 16 per slide) and measured from the pedicel base to the top of the stigma. […] DAPI fluorescence was detected with a Zeiss LSM 510 confocal microscope with excitation at 408 nm, dichroic reflector at HFT488 nm and detection at 450-650 nm. […]
Presence of the following ovule characteristics were recorded: MMCs, Antennaria type diplosporous 1-2 nucleate ES, sexual or Taraxacum type diplosporous dyads, sexual tetrads, sexual or Taraxacum type diplosporous 1-2 nucleate ES, AI and AES. […]

[10] = system: B. cf. gunnisoniana ovules; conditions: pre-MMC staged pistils demethylated with 5-azaC; cited from earlier work
[11] = system: B. cf. gunnisoniana ovules; test: 5-azaC pre-culture soak and pistil culture, Taraxacum-type to Antennaria-type diplospory; assay type: cell-based; conditions: 500 μmol L−1 5-azaC (highest concentration)
Protocol: FIG. 38 Frequencies of triploid B. cf. gunnisoniana ovules that were initiating Taraxacum-type diplospory, Polygonum-type sexual development, Antennaria-type diplospory, or Hieracium-type apospory at the end of pistil culture treatment as affected by a 5 min pre-culture soak in solutions containing 5-azacytidine (5-azaC). Pistils were initiated in culture at the 1-I stage. Numbers of ovules per level of 5-azaC averaged 487 and ranged from 288-590.
FIGS. 39A-39C Ovules from pistils of B. gunnisoniana treated at the pre-MMC stage with 5-azaC as a pretreatment solution and then cultured on 5-azaC-containing tissue culture media for 48 h. (FIGS. 39A, 39B) Antennaria-type (A-type) MMC vacuolation. (FIG. 39C) 2-nucleate A-type embryo sac arising directly from an MMC. scale bar: 20 μm.
Thus, if methylation in sexual plants can be prevented, or if DNA can be demethylated, the apomictic pathway might surface as the default pathway. 5-azaC, an inhibitor of DNA-cytosine methyltransferases, produces upon DNA replication hypomethylated DNA. It is a chemical analogue of cytosine that is incorporated into DNA by competition with cytosine during DNA synthesis. In 5-azaC, the carbon-5 of the cytosine ring, which is essential to DNA methyltransferase function, is replaced by nitrogen, and this causes failure of methylation at each 5-azaC site(99). […]

[12] = 7 min pretreatment in dilute H2O2
[13] = early MMC staged pistils soaked in DTBA 60 min, cultured on DTBA medium 4 d

With OC[C@H]1O[C@@](CO)(O[C@H]2O[C@H](CO)[C@@H](O)[C@H](O)[C@H]2O)[C@@H](O)[C@@H]1O [sucrose] the “meiosis termination followed by Taraxacum and Hieracium type ES formation” value ([1]; glucose instead of sucrose in medium) was 26 of 164.
For CC(O)(c1ccccc1)C(Cc1ccc(Cl)cc1)n1cncn1 (stereo not shown) [BRZ, brassinazole], the “shift from apomeiosis (dyad formation) to meiosis (tetrad formation) vs controls” value [2] was “highly significant (p<0.001) shift from apomeiosis (dyad formation) to meiosis (tetrad formation)” and the “shift of reproductive mode by BR synthesis inhibition” value ([2]; pistils cultured at the 2-IV stage) was “significant shift (P<0.05) from apomeiosis to meiosis and from apoptosis to apospory”.
For OO [H2O2, hydrogen peroxide], the “shift from apomeiosis to meiosis” value [3] is listed as “high frequency shifts from Taraxacum-type diplosporous apomeiosis to normal meiosis”, the “shift from apomeiosis (dyad formation) to meiosis (tetrad formation) vs controls” value [2] is listed as “highly significant (p<0.001) shift from apomeiosis (dyad formation) to meiosis (tetrad formation)” and the “Taraxacum-type diplosporous ES formation” value [4, 12] is listed as “absent”. For the same compound, the “ovules with surviving megaspores replaced by AES” value [4, 12] was 13%, the “switch from apomeiosis to meiosis” value [5] was “effectively switched apomeiosis to meiosis” and the “switch from apomeiosis to meiosis” value ([6]; 50 and/or 100 mmol L−1 H2O2, 5 min pretreatment of pistils) was “effectively switched apomeiosis to meiosis”. The “replacement of surviving megaspores of tetrads by aposporous embryo sacs (apospory), ovules” value ([6]; H2O2 treatments) was 30% and the “switch from apomeiosis to meiosis” value [7] was “effectively switched apomeiosis to meiosis”.
For Cl.N[C@H](CS)CCS [DTBA, (S)-2-aminobutane-1,4-dithiol hydrochloride], the parthenogenetic embryo formation [8] was “Parthenogenetic embryos”, the “number of ovules that initiated Antennaria-type diplospory” value [9] was 8 ovules and the “number of ovules that formed Antennaria-type diplosporous embryo sacs” value ([1]; glucose-DTBA-DTBA treatment) was “one”. For the same compound, the “ovules with 1st division meiotic restitution (Taraxacum-type diplosporous apomeiosis)” value [4, 13] was 40% and the “ovules with megaspores displaced by one or more AES” value [4, 13] was 18%.
In the case of Nc1ncn([C@@H]2O[C@H](CO)[C@@H](O)[C@H]2O)c(=O)n1 [5-azaC, 5-azacytidine], the “number of ovules that initiated Antennaria-type diplospory” value [9] is given as “Nine”, the “ovules switched from Taraxacum-type to Antennaria-type diplospory” value [10] is given as 10% and the “ovules with induced Antennaria-type diplospory” value [11] is given as 10%. The Antennaria type diplospory ([4]; 5-azaC soak, then 5-azaC or BR medium (5/5, 5/B)) was “occurred in some ovules”, the “ovules with meiosis replaced by Antennaria-type diplosporous embryo sac formation” value ([4]; first factorial experiment, 5-azaC in pretreatment and tissue culture media) was 6% and the “onset of aposporous embryo sac formation” value ([4]; first factorial experiment, 5-azaC in pretreatment only or pretreatment and medium) was “effectively induced onset of aposporous embryo sac formation from nucellar cells”. For the same compound, the “treated ovules that developed apomeiotically” value ([4]; pre-MMC pistils soaked in 5-azaC 60 min, cultured on control medium or media with 5-azaC, BR, or 5-azaC plus BR and DTBA) was “Greater than 90%”, the “ovules with Antennaria-type diplospory” value ([4]; second factorial experiment, 5-azaC as pretreatment and in culture medium) was 26% and the “ovules that initiated apomixis (AES, Taraxacum-type and Antennaria-type diplospory)” value ([4]; second factorial experiment, 5-azaC-treated) was 90%.
